# Measurements: US8575360B2, “Derivatives of 6,7-dihydro-5H-imidazo[1,2-a]imidazole-3-carboxylic acid amides” (Boehringer Ingelheim International GmbH, priority 2009, dated 2013)
# Molecular target: T1, LFA-1 (CD18/CD11a) binding to ICAM-1 (Homo sapiens, UniProt P05107+P20701)
# T1 construct: followed by purified LFA-1 (in buffer of 50 mM triethylamine, 150 mM NaCl, 1% beta octylglucoside)
# Assay: LFA-1/Biotin-sICAM-1 AlphaScreen assay: inhibition of LFA-1 binding to ICAM-1
# Details: 37° C. 90 minutes, highest compound concentration 1 μM
# From the text: Assay to Determine Inhibition of LFA-1 Binding to ICAM-1
# This assay protocol is designed to study the direct antagonism, by a test compound, of the interaction of ICAM-1 with the Leukointegrin CD18/CD11a (LFA-1).
# The LFA-1/Biotin-sICAM-1 molecular assay measures the ability of test compounds to inhibit binding of LFA-1 to Biotinylated-sICAM using AlphaScreen technology (Ref: Wilson, J, Rossi, C P, Carboni, S, Fremaux, C, Perrin, D, Soto, C, Kosco-Vilbois, M, and Scheer, A: A Homogeneous 384-Well High-Throughput Binding Assay for a TNF Receptor Using Alphascreen Technology. J Biomol Screen 2003; 8:522-532) that uses TS2/4(anti-LFA-1)-custom conjugated AlphaLisa acceptor beads and streptavidin-coated donor beads from PerkinElmer. The assay was performed in white OptiPlates-384 in a volume of 60 μL using assay buffer (Dulbecco's PBS containing calcium and magnesium, 2 mM MgCl2, 0.1 mM PMSF, 0.1% BSA, pH 7.1). To each well, Biotin-sICAM was added followed by purified LFA-1 (in buffer of 50 mM triethylamine, 150 mM NaCl, 1% beta octylglucoside, 2 mM MgCl2 neutralized to pH with 1M Tris-HCl, pH 7.5). For compound testing, compound was added in 5 uL to the above in 25 uL. LFA-1 and Biotin-sICAM-1 were used at concentrations that would yield a signal to background ratio of 8-10. The highest concentration of compound was 1 μM in 1% DMSO. Positive controls were wells without compound containing LFA-1, while blanks were wells without both compound and LFA-1. Plates were mixed and incubated at 37° C. for 90 minutes. This was followed by addition of 15 μL/well TS2/4-conjugated acceptor beads diluted in PBS containing 0.1% BSA for a final concentration of 10 μg/mL. The plates were mixed and incubated in the dark for 30 minutes at room temperature followed by addition of 15 μL/well streptavidin-coated donor beads diluted in PBS containing 0.1% BSA at a final concentration of 15 μg/mL. The plates were mixed and incubated in the dark for 60 minutes at room temperature and then read on an EnVision Multilabel Reader using AlphaScreen 384-well OptiPlate protocol.
# T1 sequence (P20701 26-1170): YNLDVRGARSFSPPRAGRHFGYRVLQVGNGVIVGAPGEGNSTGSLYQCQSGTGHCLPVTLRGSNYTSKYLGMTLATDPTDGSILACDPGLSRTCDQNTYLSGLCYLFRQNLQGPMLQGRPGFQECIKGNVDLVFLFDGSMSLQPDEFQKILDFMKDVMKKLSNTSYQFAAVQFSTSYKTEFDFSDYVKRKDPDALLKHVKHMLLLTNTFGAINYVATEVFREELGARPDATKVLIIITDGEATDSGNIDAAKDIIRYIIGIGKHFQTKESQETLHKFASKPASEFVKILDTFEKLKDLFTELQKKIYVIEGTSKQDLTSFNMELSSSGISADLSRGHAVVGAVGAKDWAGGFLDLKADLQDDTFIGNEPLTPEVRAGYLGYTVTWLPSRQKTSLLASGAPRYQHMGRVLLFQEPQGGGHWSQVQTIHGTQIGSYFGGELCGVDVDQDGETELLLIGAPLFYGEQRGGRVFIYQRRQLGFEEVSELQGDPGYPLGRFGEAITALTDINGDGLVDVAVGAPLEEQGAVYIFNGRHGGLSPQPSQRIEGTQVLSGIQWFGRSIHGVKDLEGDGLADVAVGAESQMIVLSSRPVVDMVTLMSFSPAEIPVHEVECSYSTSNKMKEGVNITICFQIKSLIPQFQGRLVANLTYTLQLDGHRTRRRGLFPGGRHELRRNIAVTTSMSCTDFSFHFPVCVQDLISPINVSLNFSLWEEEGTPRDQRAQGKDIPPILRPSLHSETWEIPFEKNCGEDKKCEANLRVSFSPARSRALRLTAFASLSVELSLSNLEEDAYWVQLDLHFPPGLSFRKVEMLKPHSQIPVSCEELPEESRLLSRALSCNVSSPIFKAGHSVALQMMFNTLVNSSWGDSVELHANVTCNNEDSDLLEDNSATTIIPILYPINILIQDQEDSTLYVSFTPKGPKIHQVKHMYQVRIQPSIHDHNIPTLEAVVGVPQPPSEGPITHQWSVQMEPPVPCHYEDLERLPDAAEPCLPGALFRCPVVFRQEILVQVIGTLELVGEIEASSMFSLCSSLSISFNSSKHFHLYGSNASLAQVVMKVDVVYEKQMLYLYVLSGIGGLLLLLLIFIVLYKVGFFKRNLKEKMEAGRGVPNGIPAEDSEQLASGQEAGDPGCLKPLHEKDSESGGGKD
# T1 sequence (P05107 23-769 partner): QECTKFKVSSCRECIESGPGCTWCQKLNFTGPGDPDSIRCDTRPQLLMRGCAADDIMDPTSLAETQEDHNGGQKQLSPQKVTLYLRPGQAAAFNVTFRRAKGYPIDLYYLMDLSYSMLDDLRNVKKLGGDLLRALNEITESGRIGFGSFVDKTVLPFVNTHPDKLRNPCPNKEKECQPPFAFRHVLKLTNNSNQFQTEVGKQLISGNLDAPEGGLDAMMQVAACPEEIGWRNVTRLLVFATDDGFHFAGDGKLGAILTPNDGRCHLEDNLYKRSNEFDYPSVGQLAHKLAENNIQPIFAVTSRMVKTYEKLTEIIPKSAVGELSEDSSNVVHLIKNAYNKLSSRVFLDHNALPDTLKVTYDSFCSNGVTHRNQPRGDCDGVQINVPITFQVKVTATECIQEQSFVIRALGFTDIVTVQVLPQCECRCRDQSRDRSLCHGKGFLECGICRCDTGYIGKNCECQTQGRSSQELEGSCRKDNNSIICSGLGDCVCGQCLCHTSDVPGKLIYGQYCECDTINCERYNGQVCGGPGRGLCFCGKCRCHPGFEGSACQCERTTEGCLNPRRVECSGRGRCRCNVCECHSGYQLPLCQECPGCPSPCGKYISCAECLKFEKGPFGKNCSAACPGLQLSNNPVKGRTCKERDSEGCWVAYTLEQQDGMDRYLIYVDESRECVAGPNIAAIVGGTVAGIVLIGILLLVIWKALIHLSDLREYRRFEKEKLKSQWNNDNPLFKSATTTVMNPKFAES
row,Structure (SMILES),IC50
1,C[C@@]1(Cc2ccc(C#N)cc2)C(=O)N(c2cc(Cl)c(F)c(Cl)c2)c2ncc(C(=O)NC3(C(=O)NC4(c5ccc(-c6ccc(O)cc6)cn5)CC4)CC3)n21 [Compound 2],1.1 nM
2,C[C@@]1(Cc2ccc(C#N)cc2)C(=O)N(c2cc(Cl)c(F)c(Cl)c2)c2ncc(C(=O)NC3(C(=O)NC4(c5ccc6cc(-c7cn[nH]c7)cnc6n5)CCC4)CC3)n21 [Compound 10],1 nM
3,C[C@@]1(Cc2ccc(C#N)cc2)C(=O)N(c2cc(Cl)c(F)c(Cl)c2)c2ncc(C(=O)NC3(C(=O)NC4(c5ccc(-c6cn[nH]c6)cn5)CC4)CC3)n21 [Compound 11],1.2 nM
4,Cn1cc(-c2ccc(C3(NC(=O)C4(NC(=O)c5cnc6n5[C@](C)(Cc5ccc(C#N)cc5)C(=O)N6c5cc(Cl)c(F)c(Cl)c5)CC4)CC3)nc2)c(C2CC2)n1 [Compound 14],1.1 nM
5,Cn1cc(-c2ccc(C3(NC(=O)C4(NC(=O)c5cnc6n5[C@](C)(Cc5ccc(C#N)cc5)C(=O)N6c5cc(Cl)c(F)c(Cl)c5)CC4)CC3)nn2)c(C2CC2)n1 [Compound 15],1.6 nM
6,C[C@@]1(Cc2ccc(C#N)cc2)C(=O)N(c2cc(Cl)c(F)c(Cl)c2)c2ncc(C(=O)NC3(C(=O)NC4(c5ccc(-c6ccc7nccn7c6)cn5)CC4)CC3)n21 [Compound 16],1 nM
7,Cc1ccc(-c2ccc(C3(NC(=O)C4(NC(=O)c5cnc6n5[C@](C)(Cc5ccc(C#N)cc5)C(=O)N6c5cc(Cl)c(F)c(Cl)c5)CC4)CC3)nc2)cn1 [Compound 18],1.4 nM
8,C[C@@]1(Cc2ccc(OC(F)(F)F)cc2)C(=O)N(c2cc(Cl)c(F)c(Cl)c2)c2ncc(C(=O)NC3(C(=O)NC4(c5ccc(-c6ccc(N)nc6)cn5)CC4)CC3)n21 [Compound 20],1.5 nM
9,Cc1ccc(-c2ccc(C(C)NC(=O)C(NC(=O)c3cnc4n3C(C)(Cc3ccc(C#N)cc3)C(=O)N4c3cc(Cl)c(F)c(Cl)c3)C(C)O)nc2)cn1 (stereo not drawn) [Compound 30],0.61 nM
10,C[C@@]1(Cc2ccc(C#N)cc2)C(=O)N(c2cc(Cl)c(F)c(Cl)c2)c2ncc(C(=O)NC3(C(=O)NC4(c5ncc(-c6ccc(O)cc6)cn5)CC4)CC3)n21 [Compound 34],1 nM
11,CC1(Cc2ccc(C#N)cc2)C(=O)N(c2cc(Cl)c(F)c(Cl)c2)c2ncc(C(=O)NC3(C(=O)NC4(c5ccc(-c6cnn(C7CC7)c6)cn5)CC4)CC3)n21 (stereo not drawn) [Compound 38],1.7 nM
12,C[C@@]1(Cc2ccc(OC(F)(F)F)cc2)C(=O)N(c2cc(Cl)c(F)c(Cl)c2)c2ncc(C(=O)NC3(C(=O)NC4(c5ccc(-c6cn[nH]c6)nn5)CC4)CC3)n21 [Compound 42],1.3 nM
13,Cn1cc(-c2ccc(C3(NC(=O)C4(NC(=O)c5cnc6n5[C@](C)(Cc5ccc(C#N)cc5)C(=O)N6c5cc(Cl)cc(C(F)(F)F)c5)CC4)CC3)nc2)cn1 [Compound 51],1.2 nM
14,C[C@@]1(Cc2ccc(C#N)cc2)C(=O)N(c2cc(Cl)cc(Cl)c2)c2ncc(C(=O)NC3(C(=O)NC4(c5ccc(-c6cccc(C(=O)O)c6)cn5)CC4)CC3)n21 [Compound 52],0.72 nM
15,Cc1cc(-c2ccc(C3(NC(=O)C4(NC(=O)c5cnc6n5[C@](C)(Cc5ccc(C#N)cc5)C(=O)N6c5cc(Cl)cc(Cl)c5)CC4)CC3)nc2)ccn1 [Compound 54],0.53 nM
16,CN(C)C(=O)c1cccc(-c2ccc(C3(NC(=O)C4(NC(=O)c5cnc6n5[C@](C)(Cc5ccc(C#N)cc5)C(=O)N6c5cc(Cl)cc(Cl)c5)CC4)CC3)nc2)c1 [Compound 56],0.67 nM
17,Cc1ccc(-c2ccc(C3(NC(=O)C4(NC(=O)c5cnc6n5[C@](C)(Cc5ccc(C#N)cc5)C(=O)N6c5cc(Cl)cc(Cl)c5)CC4)CC3)nc2)cn1 [Compound 62],1.1 nM
18,C[C@@H](NC(=O)C1(NC(=O)c2cnc3n2[C@](C)(Cc2ccc(C#N)cc2)C(=O)N3c2cc(Cl)c(F)c(Cl)c2)CC1)c1ccc(-c2ccc(CO)nc2)cn1 [Compound 65],0.53 nM
19,C[C@@]1(Cc2ccc(C#N)cc2)C(=O)N(c2cc(Cl)c(F)c(Cl)c2)c2ncc(C(=O)NC3(C(=O)NC4(c5ccc(-c6ccncc6)cn5)CC4)CC3)n21 [Compound 68],0.6 nM
20,Cn1cc(-c2ccc(C3(NC(=O)C4(NC(=O)c5cnc6n5[C@](C)(Cc5ccc(Br)cc5)C(=O)N6c5cc(Cl)cc(Cl)c5)CC4)CC3)nc2)cn1 [Compound 75],1.2 nM
21,C[C@H](NC(=O)c1cnc2n1[C@](C)(Cc1ccc(C#N)cc1)C(=O)N2c1cc(Cl)c(F)c(Cl)c1)C(=O)NC1(c2ncc(-c3ccc(CO)nc3)cn2)CC1 [Compound 78],1.2 nM
22,C[C@H](NC(=O)c1cnc2n1[C@](C)(Cc1ccc(C#N)cc1)C(=O)N2c1cc(Cl)c(F)c(Cl)c1)C(=O)NC1(c2ccc(-c3cnn(C)c3)cn2)CC1 [Compound 88],0.89 nM
23,C[C@H](NC(=O)c1cnc2n1[C@](C)(Cc1ccc(C#N)cc1)C(=O)N2c1cc(Cl)c(F)c(Cl)c1)C(=O)NC1(c2ccc(-c3ccc(CO)nc3)nc2)CC1 [Compound 90],0.28 nM
24,C[C@H](NC(=O)c1cnc2n1[C@](C)(Cc1ccc(C#N)cc1)C(=O)N2c1cc(Cl)c(F)c(Cl)c1)C(=O)NC1(c2ccc(-c3cn[nH]c3)cn2)CC1 [Compound 93],0.7 nM

# Continued by falling IC50, values first:
row,IC50,Structure (SMILES)
1,1.8 nM,Cn1ncc(-c2ccc(C3(NC(=O)C4(NC(=O)c5cnc6n5[C@](C)(Cc5ccc(C#N)cc5)C(=O)N6c5cc(Cl)c(F)c(Cl)c5)CC4)CC3)nc2)c1C1CC1 [Compound 13]
2,1.7 nM,"Cn1cc(-c2cnc(C3(NC(=O)C4(NC(=O)c5cnc6n5[C@](C)(Cc5ccc(OC(F)(F)F)cc5)C(=O)N6c5cc(Cl)c(F)c(Cl)c5)CC4)CC3)nc2)cn1 [Compound 40, (R)-7-(3,5-Dichloro-4-fluoro-phenyl)-5-methyl-6-oxo-5-(4-trifluoromethoxy-benzyl)-6,7-dihydro-5H-imidazo[1,2-a]imidazole-3-carboxylic acid(1-{1-[5-(1-methyl-1H-pyrazol-4-yl)-pyrimidin-2-yl]-cyclopropylcarbamoyl}-cyclopropyl)-amide]"
3,1.4 nM,C[C@@]1(Cc2ccc(C#N)cc2)C(=O)N(c2cc(Cl)c(F)c(Cl)c2)c2ncc(C(=O)NC3(C(=O)NC4(c5ncc(-c6ccc(CO)cc6)cn5)CC4)CC3)n21 [Compound 32]
4,1.3 nM,C[C@@]1(Cc2ccc(C#N)cc2)C(=O)N(c2cc(Cl)cc(Cl)c2)c2ncc(C(=O)NC3(C(=O)NC4(c5ccc(-c6cccc(C(N)=O)c6)cn5)CC4)CC3)n21 [Compound 66]
5,1.3 nM,C[C@@]1(Cc2ccc(C#N)cc2)C(=O)N(c2cc(Cl)c(F)c(Cl)c2)c2ncc(C(=O)NC3(C(=O)NC4(c5ccc(-c6ccc(CO)cc6)cn5)CC4)CC3)n21 [Compound 100]
6,1.1 nM,Cc1nn(C)c(C)c1-c1ccc(C2(NC(=O)C3(NC(=O)c4cnc5n4[C@](C)(Cc4ccc(C#N)cc4)C(=O)N5c4cc(Cl)c(F)c(Cl)c4)CC3)CC2)nc1 [Compound 101]
7,1.1 nM,C[C@@]1(Cc2ccc(OC(F)(F)F)cc2)C(=O)N(c2cc(Cl)c(F)c(Cl)c2)c2ncc(C(=O)NC3(C(=O)NC4(c5ccc(-c6ccc(=O)[nH]c6)cn5)CC4)CC3)n21 [Compound 108]
8,1 nM,C[C@@]1(Cc2ccc(C#N)cc2)C(=O)N(c2cc(Cl)cc(Cl)c2)c2ncc(C(=O)NC3(C(=O)NC4(c5ccc(-c6ccc(Cl)nc6)cn5)CC4)CC3)n21 [Compound 61]
9,0.96 nM,Cc1n[nH]c(C)c1-c1ccc(C2(NC(=O)C3(NC(=O)c4cnc5n4[C@](C)(Cc4ccc(C#N)cc4)C(=O)N5c4cc(Cl)cc(Cl)c4)CC3)CC2)nc1 [Compound 60]
10,0.89 nM,C[C@@]1(Cc2ccc(C#N)cc2)C(=O)N(c2cc(Cl)c(F)c(Cl)c2)c2ncc(C(=O)NC3(C(=O)NC4(c5ccc(-c6ccc(CO)cc6)nn5)CC4)CC3)n21 [Compound 37]
11,0.8 nM,C[C@@]1(Cc2ccc(C#N)cc2)C(=O)N(c2cc(Cl)c(F)c(Cl)c2)c2ncc(C(=O)NC3(C(=O)NC4(c5ccc(-c6cccc(C(N)=O)c6)cn5)CC4)CC3)n21 [Compound 70]
12,0.71 nM,C[C@@]1(Cc2ccc(C#N)cc2)C(=O)N(c2cc(Cl)cc(Cl)c2)c2ncc(C(=O)NC3(C(=O)NC4(c5ccc(-c6ccc(F)nc6)cn5)CC4)CC3)n21 [Compound 58]
13,0.57 nM,C[C@@]1(Cc2ccc(C#N)cc2)C(=O)N(c2cc(Cl)c(F)c(Cl)c2)c2ncc(C(=O)NC3(C(=O)NC4(c5ncc(-c6cn[nH]c6)cn5)CC4)CC3)n21 [Compound 33]
14,0.51 nM,Cn1cc(-c2cnc(C3(NC(=O)C4(NC(=O)c5cnc6n5[C@](C)(Cc5ccc(C#N)cc5)C(=O)N6c5cc(Cl)c(F)c(Cl)c5)CC4)CC3)nc2)cn1 [Compound 31]
15,0.48 nM,Cn1cc(-c2ccc(C3(NC(=O)C4(NC(=O)c5cnc6n5[C@](C)(Cc5ccc(C#N)cc5)C(=O)N6c5cc(Cl)c(F)c(Cl)c5)CC4)CC3)nn2)cn1 [Compound 35]
